In patent US20100331348A1, “TROPANE DERIVATIVES USEFUL AS PESTICIDES” (SYNGENTA CROP PROTECTION, INC., priority 2007, published 2010):
Like-named read-outs stand apart in the source and are kept apart here.

Legend:
[1] = system: Erysiphe graminis f.sp. tritici; assay: Erysiphe graminis f.sp. tritici (wheat powdery mildew) leaf disk assay; format: in vivo; details: Blumeria graminis, foliar, 96 h, preventive, four days after inoculation, read-out: control of fungal infection, Erysiphe graminis fsp. tritici
Tetranychus urticae = details: foliar, 192 h, read-out: control of Tetranychus urticae
Pyricularia oryzae = assay: whole plant or invertebrate; format: in vivo; details: foliar, 96 h
Aedes aegypti = Aedes aegypti (Yellow fever mosquito) larvae test; format: in vivo; details: 48 h
[2] = system: Puccinia recondita f.sp. tritici; assay: Puccinia recondita f.sp. tritici (wheat brown rust) leaf disk assay; format: in vivo; details: foliar, 216 h, preventive, nine days after inoculation, read-out: control of fungal infection, Puccinia recondita f.sp. tritici
Phytophthora infestans = assay: whole plant or invertebrate; format: in vivo; details: foliar, 96 h, read-out: control of fungal infection, Phytophthora infestans
Plasmopara viticola = Plasmopara viticola (downy mildew of grapevine) leaf disk assay; format: in vivo; details: foliar, 168 h, preventive, seven days after inoculation, read-out: control of fungal infection, Plasmopara viticola
Plutella xylostella = Plutella xylostella (Diamond back moth) artificial diet test; details: 120 h, read-out: control of Plutella xylostella
[3] = read-out: control of fungal infection, Pyricularia oryzae (at least 60% list)
[4] = read-out: control of fungal infection, Pyricularia oryzae (at least 80% list)

Structure (SMILES)	pest or weed control at 200 ppm [1]	pest or weed control at 200 ppm (Tetranychus urticae)	pest or weed control at 200 ppm (Pyricularia oryzae; [3])	melting point	pest or weed control at 2 ppm (Aedes aegypti)	pest or weed control at 200 ppm [2]	pest or weed control at 200 ppm (Pyricularia oryzae; [4])	pest or weed control at 200 ppm (Phytophthora infestans)	pest or weed control at 200 ppm (Plasmopara viticola)	pest or weed control at 200 ppm (Plutella xylostella)
CCc1ncnc(N2[C@@H]3CC[C@H]2CC(Oc2nc(Br)ccc2Cl)C3)c1Cl (stereo partly shown) [Example 1.167]	≥ 80%	≥ 80%								
Cc1nn(C)c2nccc(N3[C@@H]4CC[C@H]3CC(Oc3ncc(Cl)cc3F)C4)c12 (stereo partly shown) [Example 1.252]	≥ 80%		≥ 60%	112 °C						
N#Cc1ccc(OC2C[C@H]3CC[C@@H](C2)N3c2ncnc3sccc23)cc1F (stereo partly shown) [Example 1.259]		≥ 80%			≥ 80%	≥ 80%				
CCC(=O)c1ccc(OC2C[C@H]3CC[C@@H](C2)N3c2ncnc3sccc23)cc1 (stereo partly shown) [Example 2.37]	≥ 80%	≥ 80%								
FC(F)(F)c1ccnc(OC2C[C@H]3CC[C@@H](C2)N3c2ncnc3sccc23)c1 (stereo partly shown) [Example 2.51]			≥ 60%	172 °C						
O=C1c2ccccc2C(=O)N1OC1C[C@H]2CC[C@@H](C1)N2c1ncnc2sccc12 (stereo partly shown) [Example 2.64]			≥ 60%	190 °C		≥ 80%	≥ 80%			
CCC(=O)c1cc(F)c(OC2C[C@H]3CC[C@@H](C2)N3c2ncnc3sccc23)c(F)c1 (stereo partly shown) [Example 2.66]	≥ 80%	≥ 80%			≥ 80%			≥ 80%	≥ 80%	≥ 80%
Cc1csc2ncnc(N3[C@@H]4CC[C@H]3CC(Oc3ccc(C(F)(F)F)cn3)C4)c12 (stereo partly shown) [Example 2.71]	≥ 80%	≥ 80%	≥ 60%		≥ 80%				≥ 80%	
FC(F)(F)c1ccnc(OC2C[C@H]3CC[C@@H](C2)N3c2ccncn2)c1 (stereo partly shown) [Example 2.87]			≥ 60%	108 °C						
Cc1cc(N2[C@@H]3CC[C@H]2CC(Oc2cccc(C(F)(F)F)n2)C3)n2ncnc2n1 (stereo partly shown) [Example 2.101]				212 °C					≥ 80%	
Cc1noc2ncnc(N3[C@@H]4CC[C@H]3CC(Oc3cccc(C(F)(F)F)n3)C4)c12 (stereo partly shown) [Example 2.121]	≥ 80%			159 °C		≥ 80%				
Cc1cc(N2[C@@H]3CC[C@H]2CC(Oc2ccc(C(F)(F)F)cn2)C3)n2ncnc2n1 (stereo partly shown) [Example 2.139]	≥ 80%		≥ 60%	240 °C						
Cc1nn(C)c2nccc(N3[C@@H]4CC[C@H]3CC(Oc3ccc(C(F)(F)F)cn3)C4)c12 (stereo partly shown) [Example 2.194]		≥ 80%								
Cc1nsc(N2[C@@H]3CC[C@H]2CC(Oc2ccc(C(F)(F)F)cn2)C3)n1 (stereo partly shown) [Example 2.204]				169 °C		≥ 80%				
FC(F)(F)c1ccc(OC2C[C@H]3CC[C@@H](C2)N3c2ccnc3c(Cl)cccc23)nc1 (stereo partly shown) [Example 2.206]		≥ 80%	≥ 60%						≥ 80%	
CCc1ncnc(N2C3CCC2CC(=CC#N)C3)c1Cl [Example 3.1]				73 °C		≥ 80%				
CCc1ncnc(N2C3CCC2CC(=Cc2ccccc2)C3)c1Cl [Example 3.6]		≥ 80%	≥ 60%		≥ 80%			≥ 80%		≥ 80%
CCOC(=O)C=C1CC2CCC(C1)N2c1ncnc2sccc12 [Example 3.34]			≥ 60%	101 °C		≥ 80%	≥ 80%		≥ 80%	
CCc1ncnc(N2C3CCC2CC(=NOCc2ccc(C(C)C)cc2)C3)c1Cl [Example 5.20]	≥ 80%	≥ 80%				≥ 80%			≥ 80%	
CCc1ncnc(N2C3CCC2CC(=NOCc2ccc(-c4ccccc4)cc2)C3)c1Cl [Example 5.22]	≥ 80%	≥ 80%				≥ 80%				

Structure (SMILES)	pest or weed control at 200 ppm [1]	pest or weed control at 200 ppm (Tetranychus urticae)	pest or weed control at 200 ppm (Pyricularia oryzae; [3])	melting point	pest or weed control at 2 ppm (Aedes aegypti)	pest or weed control at 200 ppm [2]	pest or weed control at 200 ppm (Pyricularia oryzae; [4])	pest or weed control at 200 ppm (Phytophthora infestans)	pest or weed control at 200 ppm (Plasmopara viticola)	pest or weed control at 200 ppm (Plutella xylostella)
CCc1ncnc(N2C3CCC2CC(=NOCc2ccc(OC(F)(F)F)cc2)C3)c1Cl [Example 5.66]	≥ 80%	≥ 80%				≥ 80%				≥ 80%
CCc1ncnc(N2C3CCC2CC(=NOCc2ccc(C(F)(F)F)c(F)c2)C3)c1Cl [Example 5.86]		≥ 80%				≥ 80%	≥ 80%			
CCc1ncnc(N2C3CCC2CC(=NOCc2ccc(SC(F)(F)F)cc2)C3)c1Cl [Example 5.99]	≥ 80%	≥ 80%				≥ 80%				
c1ccc2cc(CON=C3CC4CCC(C3)N4c3ncnc4sccc34)ccc2c1 [Example 5.147]	≥ 80%	≥ 80%			≥ 80%	≥ 80%		≥ 80%		≥ 80%
CCc1ccc(CON=C2CC3CCC(C2)N3c2ncnc3sccc23)cc1 [Example 5.151]	≥ 80%	≥ 80%			≥ 80%	≥ 80%	≥ 80%	≥ 80%	≥ 80%	
FC(F)(F)c1ccc(CON=C2CC3CCC(C2)N3c2ncnc3sccc23)cc1 [Example 5.160]	≥ 80%	≥ 80%			≥ 80%	≥ 80%	≥ 80%	≥ 80%	≥ 80%	≥ 80%
CC(C)(C)c1ccc(CON=C2CC3CCC(C2)N3c2ncnc3sccc23)cc1 [Example 5.167]	≥ 80%	≥ 80%				≥ 80%				
FC(F)(F)c1ccc(ON=C2CC3CCC(C2)N3c2ncnc3sccc23)nc1 [Example 5.170]	≥ 80%	≥ 80%	≥ 60%			≥ 80%				
Cc1ccc(CON=C2CC3CCC(C2)N3c2ncnc3sccc23)cc1C [Example 5.179]	≥ 80%	≥ 80%	≥ 60%		≥ 80%	≥ 80%				≥ 80%
Fc1ccc(CON=C2CC3CCC(C2)N3c2ncnc3sccc23)c(Cl)c1 [Example 5.192]		≥ 80%	≥ 60%		≥ 80%					≥ 80%
Cc1cc(C(F)(F)F)cc(ON=C2CC3CCC(C2)N3c2ncnc3sccc23)n1 [Example 5.196]	≥ 80%			167 °C		≥ 80%				
FC(F)(F)c1cnc(ON=C2CC3CCC(C2)N3c2ncnc3sccc23)c(Cl)c1 [Example 5.207]	≥ 80%		≥ 60%	156 °C		≥ 80%				
FC(F)(F)Oc1ccc(CON=C2CC3CCC(C2)N3c2ncnc3sccc23)cc1 [Example 5.210]	≥ 80%	≥ 80%			≥ 80%	≥ 80%		≥ 80%		≥ 80%
Fc1c(Cl)cccc1CON=C1CC2CCC(C1)N2c1ncnc2sccc12 [Example 5.217]	≥ 80%	≥ 80%	≥ 60%		≥ 80%	≥ 80%	≥ 80%			≥ 80%
Fc1cc(F)c(CON=C2CC3CCC(C2)N3c2ncnc3sccc23)cc1F [Example 5.226]	≥ 80%			106 °C		≥ 80%				
FC(F)(F)c1ccc(-c2nc(CON=C3CC4CCC(C3)N4c3ncnc4sccc34)no2)cc1 [Example 5.260]	≥ 80%	≥ 80%				≥ 80%				
CCCC1COC2(CC3CCC(C2)N3c2ncnc3sccc23)O1 (stereo not shown) [Example 6.10]	≥ 80%	≥ 80%			≥ 80%	≥ 80%	≥ 80%		≥ 80%	≥ 80%
N#CCC1CC2CCC(C1)N2c1ncnc2sccc12 (stereo not shown) [Example 7.1]		≥ 80%								
OC1(CC#Cc2ccccc2)CC2CCC(C1)N2c1ncnc2sccc12 (stereo not shown) [Example 7.15]				173 °C		≥ 80%				
CCc1ncnc(N2C3CCC2CC(O)(CC#C[Si](C)(C)C)C3)c1Cl (stereo not shown) [Example 7.34]			≥ 60%	85 °C						
